# Values joined by “and” are separate entries in the source; they are usually repeats but may differ in a detail not shown here. Equal values may be shown once. Where a SMILES comes first, the peptide text is derived from it. [ ]: non-standard residue; d: D form. Hyp = O=C(O)[C@@H]1C[C@@H](O)CN1
# How the values were obtained:
# TNF-alpha = assay: Example 9 Luminex, LPS hPBMCs: TNF-alpha; assay type: cell-based, human
# Procedure: (§1) Treatment Human PBMCs were pretreated with YY-101, YDE-011 and YDE-043 or reference compound; Xiidra® at various concentration (ranging from 1 nM to 100 uM) for 2 h before stimulation. An equal volume of 0.5% DMSO was used as a vehicle control. Then, the cells were treated with LPS at 5 ug/ml. The supernatants from treated cells were harvested at 24 h and placed in a 96 well for Luminex cytokine & chemokine profiling using a Luminex 200 multiplex assay (Luminex; R&D system, USA).
# (§2) The main study arm with triplicate wells per group in a 24-well plate: • 1. Blank • 2. PBMC: 0.5% DMSO • 3. PBMC+LPS (5 ug/ml) • 4. PBMC+YY-101 100 uM • 5. PBMC+YY-101 10 uM • 6. PBMC+YY-101 1 uM • 7. PBMC+YY-101 0.1 uM • 8. PBMC+YY-101 0.01 uM • 9. PBMC+LPS (5 ug/ml)+Xiidra®100 uM • 10. PBMC+LPS (5 ug/ml)+Xiidra® 10 uM • 11. PBMC+LPS (5 ug/ml)+Xiidra® 1 uM • 12. PBMC+LPS (5 ug/ml)+Xiidra®0.1 uM • 13. PBMC+LPS (5 ug/ml)+Xiidra®0.01 uM • 14. PBMC+LPS (5 ug/ml)+Xiidra®0.001 uM • 15. PBMC+LPS (5 ug/ml)+YY-101 100 uM • 16. PBMC+LPS (5 ug/ml)+YY-101 10 uM • 17. PBMC+LPS (5 ug/ml)+YY-101 1 uM • 18. PBMC+LPS (5 ug/ml)+YY-101 0.1 uM • 19. PBMC+LPS (5 ug/ml)+YY-101 0.01 uM • 20. PBMC+LPS (5 ug/ml)+YY-101 0.001 uM • 21. PBMC+LPS (5 ug/ml)+YDE-011 100 uM • 22. PBMC+LPS (5 ug/ml)+YDE-011 10 uM • 23. PBMC+LPS (5 ug/ml)+YDE-011 1 uM • 24. PBMC+LPS (5 ug/ml)+YDE-011 0.1 uM • 25. PBMC+LPS (5 ug/ml)+YDE-011 0.01 uM • 26. PBMC+LPS (5 ug/ml)+YDE-011 0.001 uM • 27. PBMC+LPS (5 ug/ml)+YDE-043 100 uM • 28. PBMC+LPS (5 ug/ml)+YDE-043 10 uM • 29. PBMC+LPS (5 ug/ml)+YDE-043 1 uM • 30. PBMC+LPS (5 ug/ml)+YDE-043 0.1 uM • 31. PBMC+LPS (5 ug/ml)+YDE-043 0.01 uM • 32. PBMC+LPS (5 ug/ml)+YDE-043 0.001 uM
# (§3) Multiplex assay was used to measure 30 cytokines and chemokines. The 1:2, 1:10 and 1:200 diluted cell supernatant and serial dilution of the standard were dispensed into a 96 well plate at 50 ul/well. Then, the pre-mixed cocktail of antibody-coated magnetic beads was dispensed at 50 ul/well and incubated at room temperature for 2 h in a horizontal orbital microplate shaker at 800±500 rpm. The beads were washed using a magnetic device to prevent loss. The biotin-antibody was dispensed in 50 ul of each well and incubated at room temperature for 1 h in a shaker at 800±500 rpm. After washing, streptavidin-PE was added at 50 ul/well and incubated at room temperature for 30 min in a shaker under the same conditions. Finally, after washing, wash buffer (100 ul/well) was added to the plate and incubated in a shaker for 2 min. The Luminex™ 200 setting were set according to the manufacturer's protocol. The data was calculated with a standard five-parameter logistic nonlinear regression analysis of the data (xPonent software 4.2, USA). The levels of cytokine/chemokine are normalized to the live cell counts (1×10^5 cells/mL) and presented as concentrations per mL (pg/mL or ng/mL).
# CCL3/MIP-1 alpha = assay: Example 9 Luminex, LPS hPBMCs: CCL3/MIP-1 alpha; assay type: cell-based, human
# Procedure: as §1, §2, §3
# [1] = PBMC + LPS(5 ug/ml) + test article 0.001 uM, Mean
# [2] = PBMC + LPS(5 ug/ml) + test article 0.001 uM, individual replicates (1st, 2nd, 3rd)
# [3] = PBMC + LPS(5 ug/ml) + test article 0.01 uM, Mean
# [4] = PBMC + LPS(5 ug/ml) + test article 0.01 uM, individual replicates (1st, 2nd, 3rd)
# [5] = PBMC + LPS(5 ug/ml) + test article 0.1 uM, Mean
# [6] = PBMC + LPS(5 ug/ml) + test article 0.1 uM, individual replicates (1st, 2nd, 3rd)
# [7] = PBMC + LPS(5 ug/ml) + test article 1 uM, Mean
# [8] = PBMC + LPS(5 ug/ml) + test article 1 uM, individual replicates (1st, 2nd, 3rd)
# [9] = PBMC + LPS(5 ug/ml) + test article 10 uM, Mean
# [10] = PBMC + LPS(5 ug/ml) + test article 10 uM, individual replicates (1st, 2nd, 3rd)
# [11] = PBMC + LPS(5 ug/ml) + test article 100 uM, Mean
# [12] = PBMC + LPS(5 ug/ml) + test article 100 uM, individual replicates (1st, 2nd, 3rd)
# [13] = PBMC + LPS(5 ug/ml) + test article 0.001 uM, individual replicates
# [14] = PBMC + LPS(5 ug/ml) + test article 0.01 uM, individual replicates
# [15] = PBMC + LPS(5 ug/ml) + test article 0.1 uM, individual replicates
# [16] = PBMC + LPS(5 ug/ml) + test article 1 uM, individual replicates
# [17] = PBMC + LPS(5 ug/ml) + test article 10 uM, individual replicates
# [18] = PBMC + LPS(5 ug/ml) + test article 100 uM, individual replicates
structure (smiles),measurement,setting,value
CC(C)C[C@H](NC(=O)[C@H](CCC(N)=O)NC(=O)CNC(=O)[C@@H]1C[C@@H](O)CN1)C(=O)NCC(=O)O [YDE-043] (H-[Hyp]GQLG-OH; N-terminus and C-terminus assumed),TNF-alpha Concentration,TNF-alpha; [1],1325.0 pg/mL
same,TNF-alpha conc/live cell,TNF-alpha; [1],268.4 pg/10^5
same,TNF-alpha Concentration,TNF-alpha; [2],1248.3 pg/mL and 1405.1 pg/mL and 1321.4 pg/mL
same,TNF-alpha conc/live cell,TNF-alpha; [2],283.7 pg/10^5 and 234.2 pg/10^5 and 287.3 pg/10^5
same,TNF-alpha Concentration,TNF-alpha; [3],1327.4 pg/mL
same,TNF-alpha conc/live cell,TNF-alpha; [3],253.6 pg/10^5
same,TNF-alpha Concentration,TNF-alpha; [4],1282.6 pg/mL and 1322.9 pg/mL and 1376.7 pg/mL
same,TNF-alpha conc/live cell,TNF-alpha; [4],285.0 pg/10^5 and 200.4 pg/10^5 and 275.3 pg/10^5
same,TNF-alpha Concentration,TNF-alpha; [5],1319.0 pg/mL
same,TNF-alpha conc/live cell,TNF-alpha; [5],244.5 pg/10^5
same,TNF-alpha Concentration,TNF-alpha; [6],1254.3 pg/mL and 1333.4 pg/mL and 1369.2 pg/mL
same,TNF-alpha conc/live cell,TNF-alpha; [6],250.9 pg/10^5 and 238.1 pg/10^5 and 244.5 pg/10^5
same,TNF-alpha Concentration,TNF-alpha; [7],1260.8 pg/mL
same,TNF-alpha conc/live cell,TNF-alpha; [7],238.1 pg/10^5
same,TNF-alpha Concentration,TNF-alpha; [8],1330.4 pg/mL and 1136.7 pg/mL and 1315.4 pg/mL
same,TNF-alpha conc/live cell,TNF-alpha; [8],229.4 pg/10^5 and 236.8 pg/10^5 and 248.2 pg/10^5
same,TNF-alpha Concentration,TNF-alpha; [9],1247.9 pg/mL
same,TNF-alpha conc/live cell,TNF-alpha; [9],231.0 pg/10^5
same,TNF-alpha Concentration,TNF-alpha; [10],1175.4 pg/mL and 1249.8 pg/mL and 1318.4 pg/mL
same,TNF-alpha conc/live cell,TNF-alpha; [10],226.0 pg/10^5 and 231.4 pg/10^5 and 235.4 pg/10^5
same,TNF-alpha Concentration,TNF-alpha; [11],901.5 pg/mL
same,TNF-alpha conc/live cell,TNF-alpha; [11],143.3 pg/10^5
same,TNF-alpha Concentration,TNF-alpha; [12],956.0 pg/mL and 847.0 pg/mL
same,TNF-alpha conc/live cell,TNF-alpha; [12],154.2 pg/10^5 and 132.4 pg/10^5
same,Concentration,CCL3/MIP-1 alpha; [1],7935.0 pg/mL
same,conc/live cell,CCL3/MIP-1 alpha; [1],1611.4 pg/10^5
same,Concentration,CCL3/MIP-1 alpha; [13],7637.9 pg/mL and 8204.6 pg/mL and 7962.5 pg/mL
same,conc/live cell,CCL3/MIP-1 alpha; [13],1735.9 pg/10^5 and 1367.4 pg/10^5 and 1731.0 pg/10^5
same,Concentration,CCL3/MIP-1 alpha; [3],7883.4 pg/mL
same,conc/live cell,CCL3/MIP-1 alpha; [3],1505.4 pg/10^5
same,Concentration,CCL3/MIP-1 alpha; [14],7796.2 pg/mL and 7985.9 pg/mL and 7868.0 pg/mL
same,conc/live cell,CCL3/MIP-1 alpha; [14],1732.5 pg/10^5 and 1210.0 pg/10^5 and 1573.6 pg/10^5
same,Concentration,CCL3/MIP-1 alpha; [5],7645.0 pg/mL
same,conc/live cell,CCL3/MIP-1 alpha; [5],1418.9 pg/10^5
same,Concentration,CCL3/MIP-1 alpha; [15],7513.4 pg/mL and 7625.5 pg/mL and 7796.2 pg/mL
same,conc/live cell,CCL3/MIP-1 alpha; [15],1502.7 pg/10^5 and 1361.7 pg/10^5 and 1392.2 pg/10^5
same,Concentration,CCL3/MIP-1 alpha; [7],7636.6 pg/mL
same,conc/live cell,CCL3/MIP-1 alpha; [7],1442.9 pg/10^5
same,Concentration,CCL3/MIP-1 alpha; [16],7962.5 pg/mL and 6891.7 pg/mL and 8055.7 pg/mL
same,conc/live cell,CCL3/MIP-1 alpha; [16],1372.8 pg/10^5 and 1435.8 pg/10^5 and 1520.0 pg/10^5
same,Concentration,CCL3/MIP-1 alpha; [9],7606.3 pg/mL
same,conc/live cell,CCL3/MIP-1 alpha; [9],1409.0 pg/10^5
same,Concentration,CCL3/MIP-1 alpha; [17],7500.8 pg/mL and 7450.2 pg/mL and 7868.0 pg/mL
same,conc/live cell,CCL3/MIP-1 alpha; [17],1442.5 pg/10^5 and 1379.7 pg/10^5 and 1405.0 pg/10^5
same,Concentration,CCL3/MIP-1 alpha; [11],7769.2 pg/mL
same,conc/live cell,CCL3/MIP-1 alpha; [11],1234.0 pg/10^5
same,Concentration,CCL3/MIP-1 alpha; [18],7962.5 pg/mL and 7575.9 pg/mL
same,conc/live cell,CCL3/MIP-1 alpha; [18],1284.3 pg/10^5 and 1183.7 pg/10^5

# Source: US20230146455A1, “TREATMENT OF INFLAMMATORY DISEASES WITH PEPTIDES AND PHARMACEUTICAL COMPOSITIONS” (Yuyu Pharma, Inc., priority 2020, published 2023)
